Literature values as cited in patent US10980718B2, “Personal care compositions comprising poorly soluble compounds” (Conopco, Inc., priority 2016, dated 2021).

solubility of cystine in aqueous solutions by pH (aqueous solutions with pH less than 2 or pH above 8): more soluble
natural solubility limit of cystine (room temperature and neutral pH): 0.01 wt %
SMILES: N[C@@H](CSSC[C@H](N)C(=O)O)C(=O)O [cystine]
